According to ChEMBL document CHEMBL1158172, “Preparation and antibacterial activity of cyclic 2',3'-carbamate derivatives of azithromycin” (Eur J Med Chem, 2008):
The source made the active and inactive calls. The calls are words filed in the database; no cut-off is given here.

Assays:
[1] = system: Escherichia coli; experiment: Antibacterial activity against Escherichia coli ATCC 25922; type: functional, organism-based
[2] = system: Staphylococcus aureus; experiment: Antibacterial activity against Staphylococcus aureus ATCC 25923; type: functional, organism-based

**Q.** Which results are given for `CC[C@H]1OC(=O)[C@H](C)[C@@H](O[C@H]2C[C@@](C)(OC)[C@@H](O)[C@H](C)O2)[C@H](C)[C@@H](O[C@@H]2O[C@H](C)C[C@H]3[C@H]2OC(=O)N3C)[C@](C)(O)C[C@@H](C)CN[C@H](C)[C@@H]2OC(=O)O[C@]12C`?
**A.** Activity [1]: inactive; Activity [2]: inactive

**Q.** What does the source list for `CC[C@H]1OC(=O)[C@H](C)[C@@H](O[C@H]2C[C@@](C)(OC)[C@@H](O)[C@H](C)O2)[C@H](C)[C@@H](O[C@@H]2O[C@H](C)C[C@H]3[C@H]2OC(=O)N3C)[C@](C)(O)C[C@@H](C)CN(C)[C@H](C)[C@@H]2OC(=O)O[C@]12C`?
**A.** Activity [1]: inactive; Activity [2]: inactive
